{"source": "BindingDB's records for patent WO2022098806", "about": "(MERCK SHARP & DOHME LLC, 2022)"}
{"target": "Mitogen-activated protein kinase kinase kinase kinase 1 (Homo sapiens, UniProt Q92918)", "sequence (Q92918 whole entry)": "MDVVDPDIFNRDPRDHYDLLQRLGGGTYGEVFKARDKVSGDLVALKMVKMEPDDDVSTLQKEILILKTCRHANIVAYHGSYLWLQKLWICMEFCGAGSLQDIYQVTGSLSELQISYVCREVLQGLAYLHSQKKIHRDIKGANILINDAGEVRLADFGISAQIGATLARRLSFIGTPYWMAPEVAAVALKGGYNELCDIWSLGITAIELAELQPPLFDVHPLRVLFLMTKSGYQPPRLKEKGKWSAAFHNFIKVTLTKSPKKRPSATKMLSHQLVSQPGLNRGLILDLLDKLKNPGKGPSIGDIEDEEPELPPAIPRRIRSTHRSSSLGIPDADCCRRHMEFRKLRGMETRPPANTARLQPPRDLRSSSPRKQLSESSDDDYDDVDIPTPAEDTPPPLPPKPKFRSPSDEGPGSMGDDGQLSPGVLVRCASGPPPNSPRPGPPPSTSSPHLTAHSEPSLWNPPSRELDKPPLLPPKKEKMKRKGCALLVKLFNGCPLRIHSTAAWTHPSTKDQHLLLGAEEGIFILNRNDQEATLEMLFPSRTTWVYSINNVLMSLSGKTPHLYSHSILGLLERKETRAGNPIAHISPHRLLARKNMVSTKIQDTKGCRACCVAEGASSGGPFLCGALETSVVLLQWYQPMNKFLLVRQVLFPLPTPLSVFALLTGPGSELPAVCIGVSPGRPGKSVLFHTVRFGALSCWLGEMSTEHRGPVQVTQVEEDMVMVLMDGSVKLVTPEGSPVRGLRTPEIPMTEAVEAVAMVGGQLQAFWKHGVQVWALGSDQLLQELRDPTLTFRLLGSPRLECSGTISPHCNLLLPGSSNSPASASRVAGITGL", "experiment": "HPK1-SLP76 TR-FRET ASSAY", "units": {"IC50": "nM"}}
{"smiles": "COc1cc2c(cc1Nc1ncc3ccc(-c4cncc5cccnc45)cc3n1)CN(C)CC2", "note": "[WO2022098806, Compound 1-24]", "IC50": 10}
{"smiles": "COc1cc2c(cc1Nc1ncc3ccc(-c4cnn(C(F)F)c4)cc3n1)CN(C)CC2", "note": "[WO2022098806, Compound 1-26]", "IC50": 11}
{"smiles": "COc1cc2c(cc1Nc1ncc3ccc(-c4cncc(NS(C)(=O)=O)c4)cc3n1)CNCC2", "note": "[WO2022098806, Compound 1-36]", "IC50": 183}
{"smiles": "COc1cc2c(cc1Nc1ncc3ccc(-c4cnccc4Cl)cc3n1)CNCC2", "note": "[WO2022098806, Compound 1-37]", "IC50": 28}
{"smiles": "COc1cc2c(cc1Nc1ncc3ccc(-c4cncc(N5CCOCC5)c4)cc3n1)CNCC2", "note": "[WO2022098806, Compound 1-42]", "IC50": 39}
{"smiles": "CCCC(=O)Nc1cncc(-c2ccc3cnc(Nc4cc5c(cc4OC)CCNC5)nc3c2)c1", "note": "[WO2022098806, Compound 1-52]", "IC50": 11}
{"smiles": "COc1cc2c(cc1Nc1ncc3ccc(-c4cccc(CO)c4)cc3n1)CNCC2", "note": "[WO2022098806, Compound 1-60]", "IC50": 20}
{"smiles": "COc1cc2c(cc1Nc1ncc3ccc(-c4cccc(S(=O)(=O)N5CCOCC5)c4)cc3n1)CNCC2", "note": "[WO2022098806, Compound 1-77]", "IC50": 25}
{"smiles": "COc1cc2c(cc1Nc1ncc3ccc(-c4cccc(S(=O)(=O)N5CCCCC5)c4)cc3n1)CNCC2", "note": "[WO2022098806, Compound 1-82]", "IC50": 15}
{"smiles": "COc1cc2c(cc1Nc1ncc3ccc(-c4cccc(NCC(C)=O)c4)cc3n1)CN(C)CC2", "note": "[WO2022098806, Compound 1-98]", "IC50": 203}
{"smiles": "COc1cc2c(cc1Nc1ncc3ccc(-c4cccc(C5CCC(=O)N5)c4)cc3n1)CN(C)CC2", "note": "(stereo not drawn) [WO2022098806, Compound 1-99]", "IC50": 120}
{"smiles": "COc1cc2c(cc1Nc1ncc3ccc(-c4cnn(CC(C)O)c4)cc3n1)CN(C)CC2", "note": "(stereo not drawn) [WO2022098806, Compound 1-102]", "IC50": 22}
{"smiles": "Cc1c(-c2cc3nc(Nc4ccc5c(c4)CN(C)CC5)ncc3cc2F)cnc2c1NCCO2", "note": "[WO2022098806, Compound 1-114]", "IC50": 0.09}
{"smiles": "Cc1c(-c2cc3nc(Nc4ccc(CS(C)(=O)=O)cc4)ncc3cc2F)cnc2c1NCCO2", "note": "[WO2022098806, Compound 1-115]", "IC50": 0.05}
{"smiles": "CNC(=O)[C@@H](C)c1ccc(Nc2ncc3cc(F)c(-c4cnc5c(c4C)NCCO5)cc3n2)cc1", "note": "[WO2022098806, Compound 1-116]", "IC50": 0.22}
{"smiles": "CNC(=O)[C@H](C)c1ccc(Nc2ncc3cc(F)c(-c4cnc5c(c4C)NCCO5)cc3n2)cc1", "note": "[WO2022098806, Compound 1-117]", "IC50": 0.07}
{"smiles": "CNC(=O)[C@@H]1CCc2cc(Nc3ncc4cc(F)c(-c5cnc6c(c5C)NCCO6)cc4n3)ccc21", "note": "[WO2022098806, Compound 1-118]", "IC50": 0.04}
{"smiles": "CNC(=O)[C@H]1CCc2cc(Nc3ncc4cc(F)c(-c5cnc6c(c5C)NCCO6)cc4n3)ccc21", "note": "[WO2022098806, Compound 1-119]", "IC50": 1.17}
{"smiles": "CNC(=O)C1(c2ccc(Nc3ncc4cc(F)c(-c5cnc6c(c5C)NCCO6)cc4n3)cc2)CCC1", "note": "[WO2022098806, Compound 1-121]", "IC50": 0.26}
{"smiles": "Cc1c(-c2cc3nc(Nc4ccc([C@H](C)S(C)(=O)=O)cc4)ncc3cc2F)cnc2c1NCCO2", "note": "[WO2022098806, Compound 1-124]", "IC50": 0.04}
{"smiles": "Cc1c(-c2cc3nc(Nc4ccc([C@@H]5CCN(C)C5=O)cc4)ncc3cc2F)cnc2c1NCCO2", "note": "[WO2022098806, Compound 1-125]", "IC50": 0.06}
{"smiles": "Cc1c(-c2cc3nc(Nc4ccc([C@@H](C)S(C)(=O)=O)cc4)ncc3cc2F)cnc2c1NCCO2", "note": "[WO2022098806, Compound 1-126]", "IC50": 0.68}
{"smiles": "Cc1c(-c2cc3nc(Nc4ccc([C@H]5CCN(C)C5=O)cc4)ncc3cc2F)cnc2c1NCCO2", "note": "[WO2022098806, Compound 1-127]", "IC50": 0.95}
{"smiles": "Cc1c(-c2cc3nc(Nc4ccc(CS(=O)(=O)C(C)C)cc4)ncc3cc2F)cnc2c1NCCO2", "note": "[WO2022098806, Compound 1-128]", "IC50": 0.08}
{"smiles": "Cc1c(-c2ccc3cnc(Nc4ccc(CS(=O)(=O)C(C)C)cc4)nc3c2)cnc2c1NCCO2", "note": "[WO2022098806, Compound 1-129]", "IC50": 0.09}
{"smiles": "CNC(=O)Cc1ccc(Nc2ncc3cc(F)c(-c4cnc5c(c4C)NCCO5)cc3n2)cc1", "note": "[WO2022098806, Compound 1-130]", "IC50": 0.07}
{"smiles": "Cc1c(-c2cc3nc(Nc4ccc(CC(N)=O)cc4)ncc3cc2F)cnc2c1NCCO2", "note": "[WO2022098806, Compound 1-131]", "IC50": 0.16}
{"smiles": "Cc1c(-c2cc3nc(Nc4ccc(CC(=O)N(C)C)cc4)ncc3cc2F)cnc2c1NCCO2", "note": "[WO2022098806, Compound 1-132]", "IC50": 0.13}
{"smiles": "Cc1c(-c2cc3nc(Nc4ccc(CC(=O)N5CCOCC5)cc4)ncc3cc2F)cnc2c1NCCO2", "note": "[WO2022098806, Compound 1-133]", "IC50": 0.08}
{"smiles": "CCS(=O)(=O)Cc1ccc(Nc2ncc3ccc(-c4cnc5c(c4C)NCCO5)cc3n2)cc1", "note": "[WO2022098806, Compound 1-134]", "IC50": 0.04}
{"smiles": "COc1cc2c(cc1Nc1ncc3c(N)c(F)c(-c4cnc5c(c4C)NCCO5)cc3n1)CN(C)CC2", "note": "[WO2022098806, Compound 2-2]", "IC50": 0.09}
{"smiles": "CC(=O)N1CCCc2cc(Nc3ncc4c(N)c(F)c(-c5cnc6c(c5C)NCCO6)cc4n3)ccc21", "note": "[WO2022098806, Compound 2-7]", "IC50": 0.11}
{"smiles": "CC(=O)N[C@@H]1CCc2cc(Nc3ncc4c(N)c(F)c(-c5cnc6c(c5C)NCCO6)cc4n3)ccc21", "note": "[WO2022098806, Compound 2-10]", "IC50": 0.12}
{"smiles": "CC(=O)N[C@H]1CCc2cc(Nc3ncc4c(N)c(F)c(-c5cnc6c(c5C)NCCO6)cc4n3)ccc21", "note": "[WO2022098806, Compound 2-11]", "IC50": 0.08}
{"smiles": "CC(=O)N1CCc2ccc(Nc3ncc4c(N)c(F)c(-c5cnc6c(c5C)NCCO6)cc4n3)cc2C1", "note": "[WO2022098806, Compound 2-12]", "IC50": 865}
{"smiles": "Cc1c(-c2cc3nc(Nc4cccc(S(C)(=O)=O)c4)ncc3c(N)c2F)cnc2c1NCCO2", "note": "[WO2022098806, Compound 2-14]", "IC50": 0.08}
{"smiles": "CC(=O)Nc1ccc(Nc2ncc3c(N)c(F)c(-c4cnc5c(c4C)NCCO5)cc3n2)cc1", "note": "[WO2022098806, Compound 2-15]", "IC50": 0.07}
{"smiles": "Cc1c(-c2cc3nc(Nc4ccc(NS(C)(=O)=O)cc4)ncc3c(N)c2F)cnc2c1NCCO2", "note": "[WO2022098806, Compound 2-16]", "IC50": 0.09}
{"smiles": "Cc1c(-c2cc3nc(Nc4ccc(S(C)(=O)=O)cc4)ncc3c(N)c2F)cnc2c1NCCO2", "note": "[WO2022098806, Compound 2-17]", "IC50": 0.09}
{"smiles": "CNC(=O)c1ccc(Nc2ncc3c(N)c(F)c(-c4cnc5c(c4C)NCCO5)cc3n2)cc1", "note": "[WO2022098806, Compound 2-23]", "IC50": 0.05}
{"smiles": "Cc1c(-c2cc3nc(Nc4ccccc4)ncc3c(N)c2F)cnc2c1NCCO2", "note": "[WO2022098806, Compound 2-25]", "IC50": 0.27}
{"smiles": "Cc1c(-c2cc3nc(Nc4ccccc4C4CC4)ncc3c(N)c2F)cnc2c1NCCO2", "note": "[WO2022098806, Compound 2-26]", "IC50": 11}
{"smiles": "COc1ncccc1Nc1ncc2c(N)c(F)c(-c3cnc4c(c3C)NCCO4)cc2n1", "note": "[WO2022098806, Compound 2-27]", "IC50": 0.12}
{"smiles": "CC(=O)N1CCC[C@@H]1c1ccc(Nc2ncc3c(N)c(F)c(-c4cnc5c(c4C)NCCO5)cc3n2)cc1", "note": "[WO2022098806, Compound 2-28]", "IC50": 0.15}
{"smiles": "CC(=O)N1CCC[C@H]1c1ccc(Nc2ncc3c(N)c(F)c(-c4cnc5c(c4C)NCCO5)cc3n2)cc1", "note": "[WO2022098806, Compound 2-29]", "IC50": 0.27}
{"smiles": "CC(=O)NCc1ccc(Nc2ncc3c(N)c(F)c(-c4cnc5c(c4C)NCCO5)cc3n2)cc1", "note": "[WO2022098806, Compound 2-30]", "IC50": 0.08}
{"smiles": "Cc1c(-c2cc3nc(Nc4cccc(S(=O)(=O)NC(C)(C)C)c4)ncc3c(N)c2F)cnc2c1NCCO2", "note": "[WO2022098806, Compound 2-33]", "IC50": 0.19}
{"smiles": "CNS(=O)(=O)c1cccc(Nc2ncc3c(N)c(F)c(-c4cnc5c(c4C)NCCO5)cc3n2)c1", "note": "[WO2022098806, Compound 2-34]", "IC50": 0.12}
{"smiles": "COc1cc2c(cc1Nc1ncc3c(N)c(F)c(-c4cnc5c(c4C)NCCO5)cc3n1)[C@@H](C)N(C)CC2", "note": "[WO2022098806, Compound 2-35]", "IC50": 0.15}
{"smiles": "COc1cc2c(cc1Nc1ncc3c(N)c(F)c(-c4cnc5c(c4C)NCCO5)cc3n1)[C@H](C)N(C)CC2", "note": "[WO2022098806, Compound 2-36]", "IC50": 0.1}
{"smiles": "Cc1c(-c2cc3nc(Nc4ccc5c(c4)C(C)(C)OC5=O)ncc3c(N)c2F)cnc2c1NCCO2", "note": "[WO2022098806, Compound 2-41]", "IC50": 0.08}
{"smiles": "Cc1c(-c2cc3nc(Nc4ccc5c(c4)CN(CC(C)(C)O)C5=O)ncc3c(N)c2F)cnc2c1NCCO2", "note": "[WO2022098806, Compound 2-42]", "IC50": 0.15}
{"smiles": "Cc1c(-c2cc3nc(Nc4ccc5c(c4)CCS5(=O)=O)ncc3c(N)c2F)cnc2c1NCCO2", "note": "[WO2022098806, Compound 2-43]", "IC50": 0.08}
{"smiles": "Cc1ccncc1-c1cc2nc(Nc3ccc(CS(C)(=O)=O)cc3)ncc2c(N)c1F", "note": "[WO2022098806, Compound 2-44]", "IC50": 0.19}
{"smiles": "COc1cc2c(cc1Nc1ncc3c(N)c(F)c(-c4cnc5ncsc5c4)cc3n1)CN(C)CC2", "note": "[WO2022098806, Compound 2-47]", "IC50": 25}
{"smiles": "COc1cc2c(cc1Nc1ncc3c(N)c(F)c(-c4cnc5c(c4C)NCCO5)cc3n1)C(C)N(C)C(C)C2", "note": "(stereo not drawn) [WO2022098806, Compound 2-48]", "IC50": 0.7}
{"smiles": "COc1cc2c(cc1Nc1ncc3c(N)c(F)c(-c4cc5oc(=O)[nH]c5cc4C)cc3n1)CN(C)CC2", "note": "[WO2022098806, Compound 2-49]", "IC50": 10}
{"smiles": "COc1cc([C@@H]2CCN(C)C2=O)ccc1Nc1ncc2c(N)c(F)c(-c3cnc4c(c3C)NCCO4)cc2n1", "note": "[WO2022098806, Compound 2-54]", "IC50": 0.08}
{"smiles": "COc1cc([C@H](C)S(C)(=O)=O)ccc1Nc1ncc2c(N)c(F)c(-c3cnc4c(c3C)NCCO4)cc2n1", "note": "[WO2022098806, Compound 2-55]", "IC50": 1.62}
{"smiles": "COc1cc([C@@H](C)S(C)(=O)=O)ccc1Nc1ncc2c(N)c(F)c(-c3cnc4c(c3C)NCCO4)cc2n1", "note": "[WO2022098806, Compound 2-56]", "IC50": 0.1}
{"smiles": "COc1cc([C@H]2CCN(C)C2=O)ccc1Nc1ncc2c(N)c(F)c(-c3cnc4c(c3C)NCCO4)cc2n1", "note": "[WO2022098806, Compound 2-57]", "IC50": 0.91}
{"smiles": "COC1CC(NC(=O)c2ccc(Nc3ncc4c(N)c(F)c(-c5cnc6c(c5C)NCCO6)cc4n3)cc2)C1", "note": "(stereo not drawn) [WO2022098806, Compound 2-58]", "IC50": 0.08}
{"smiles": "Cc1c(-c2cc3nc(Nc4cc5c(cc4F)CCN(C)C5)ncc3c(N)c2F)cnc2c1NCCO2", "note": "[WO2022098806, Compound 2-59]", "IC50": 0.05}
